The text below walks through data of patent US7524846B2, “Arylalkyl- and cycloalkylalkyl-piperazine derivatives and methods of their use” (Wyeth, priority 2003, dated 2009).

By inhibition is commonly meant the change of the read-out against control, counted positive when it falls. As usually defined, the pEC50 is −log10 of the EC50, conventionally taken in molar units. A higher pEC50 goes with a low EC50.

pEC50: −log10 of the molar value. Counter-ions that a name gives are not always drawn.

This test concerns the target T1, hNET (Homo sapiens, UniProt P23975).
T1 construct: expressed in transfected cells; host or cells: MDCK-Net6 (MDCK cells stably transfected with hNET)
As to the kind of experiment: Norepinephrine (NE) uptake assay in MDCK-Net6 cells. Type of test: cell-based. The note with it: [3H]NE uptake, MDCK-Net6 cells stably transfected with human hNET; for inhibition at 1 µM: 1 μM test compound; for pEC50: test range 1 to 10,000 nM. The procedure: MDCK-Net6 cells, stably transfected with human hNET (Pacholczyk, T., R. D. Blakely, and S. G. Amara, Nature, 1991, 350(6316): p. 350-4) were cultured in growth medium containing high glucose DMEM (Gibco, Cat. No. 11995), 10% FBS (dialyzed, heat-inactivated, US Bio-Technologies, Lot FBD1129HI) and 500 μg/ml G418 (Gibco, Cat. No. 10131). Cells were plated at 300,000/T75 flask and cells were split twice weekly. The JAR cell line (human placental choriocarcinoma) was purchased from ATCC (Cat. No. HTB-144). The cells were cultured in growth medium containing RPMI 1640 (Gibco, Cat. No. 72400), 10% FBS (Irvine, Cat. No. 3000), 1% sodium pyruvate (Gibco, Cat. No. 1136) and 0.25% glucose. Cells were plated at 250,000 cells/T75 flask and split twice weekly. For all assays, cells were plated in Wallac 96-well sterile plates (PerkinElmer, Cat. No. 3983498).
On day 1, cells were plated at 3,000 cells/well in growth medium and maintained in a cell incubator (37° C., 5% CO2). On day 2, growth medium was replaced with 200 μl of assay buffer (25 mM HEPES; 120 mM NaCl; 5 mM KCl; 2.5 mM CaCl2; 1.2 mM MgSO4; 2 mg/ml glucose (pH 7.4, 37° C.)) containing 0.2 mg/ml ascorbic acid and 10 μM pargyline. Plates containing cells with 200 μl of assay buffer were equilibrated for 10 minutes at 37° C. prior to addition of compounds. A stock solution of desipramine was prepared in DMSO (10 mM) and delivered to triplicate wells containing cells for a final test concentration of 1 μM. Data from these wells were used to define non-specific NE uptake (minimum NE uptake). Test compounds were prepared in DMSO (10 mM) and diluted in assay buffer according to test range (1 to 10,000 nM). Twenty-five microliters of assay buffer (maximum NE uptake) or test compound were added directly to triplicate wells containing cells in 200 μl of assay buffer. The cells in assay buffer with test compounds were incubated for 20 minutes at 37° C. To initiate the NE uptake, [^3H]NE diluted in assay buffer (120 nM final assay concentration) was delivered in 25 μl aliquots to each well and the plates were incubated for 5 minutes (37° C.). The reaction was terminated by decanting the supernatant from the plate. The plates containing cells were washed twice with 200 μl assay buffer (37° C.) to remove free radioligand. The plates were then inverted, left to dry for 2 minutes, then reinverted and air-dried for an additional 10 minutes. The cells were lysed in 25 μl of 0.25 N NaOH solution (4° C.), placed on a shake table and vigorously shaken for 5 minutes. After cell lysis, 75 μl of scintillation cocktail was added to each well and the plates were sealed with film tape. The plates were returned to the shake table and vigorously shaken for a minimum of 10 minutes to ensure adequate partitioning of organic and aqueous solutions. The plates were counted in a Wallac Microbeta counter (PerkinElmer) to collect the raw cpm data.
For each experiment, a data stream of cpm values collected from the Wallac Microbeta counter was downloaded to a Microsoft Excel statistical application program. Calculations of EC50 values were made using the transformed-both-sides logistic dose response program written by Wyeth Biometrics Department. The statistical program uses mean cpm values from wells representing maximum binding or uptake (assay buffer) and mean cpm values from wells representing minimum binding or uptake ((1 μM desipramine (hNET) or 1 μM paroxetine (hSERT)). Estimation of the EC50 value was completed on a log scale and the line was fit between the maximum and minimum binding or uptake values. All graphic data representation was generated by normalizing each data point to a mean percent based on the maximum and minimum binding or uptake values. The EC50 values reported from multiple experiments were calculated by pooling the raw data from each experiment and analyzing the pooled data as one experiment.

T1 sequence (P23975 whole entry): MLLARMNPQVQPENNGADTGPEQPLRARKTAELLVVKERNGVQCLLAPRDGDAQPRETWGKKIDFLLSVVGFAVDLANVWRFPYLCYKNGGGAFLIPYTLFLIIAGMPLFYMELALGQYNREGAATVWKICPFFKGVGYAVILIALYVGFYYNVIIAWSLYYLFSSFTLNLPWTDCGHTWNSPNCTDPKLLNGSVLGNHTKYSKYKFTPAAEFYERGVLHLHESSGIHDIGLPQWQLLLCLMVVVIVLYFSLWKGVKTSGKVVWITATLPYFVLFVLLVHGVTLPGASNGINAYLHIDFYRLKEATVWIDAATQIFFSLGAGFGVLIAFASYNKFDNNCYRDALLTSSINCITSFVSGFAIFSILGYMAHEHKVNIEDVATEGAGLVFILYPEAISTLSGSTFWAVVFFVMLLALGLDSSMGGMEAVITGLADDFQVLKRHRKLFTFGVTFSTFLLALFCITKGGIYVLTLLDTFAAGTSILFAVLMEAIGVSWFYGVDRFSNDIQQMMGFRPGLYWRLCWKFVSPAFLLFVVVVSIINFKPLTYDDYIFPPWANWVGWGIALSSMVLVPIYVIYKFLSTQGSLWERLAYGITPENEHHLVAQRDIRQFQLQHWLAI

Turning to `COc1ccc2cc(CN3CCN(CC(c4cccc(Cl)c4)C4(O)CCCCC4)CC3)ccc2c1` (stereo not drawn) [Example 117, 1-(1-(3-chlorophenyl)-2-{4-[(6-methoxy-2-naphthyl)methyl]piperazin-1-yl}ethyl)cyclohexanol dihydrochloride], 1 µM produced 87% inhibition and the pEC50 was 7.21.
`OC1(C(CN2CCN(CC3CC3)CC2)c2cccc(Cl)c2)CCCCC1` (stereo not drawn) [Example 118, 1-{1-(3-chlorophenyl)-2-[4-(cyclopropylmethyl)piperazin-1-yl]ethyl}cyclohexanol dihydrochloride] gave an inhibition at 1 µM of 97% and a pEC50 of 7.24.
In turn, `OC1(C(CN2CCN(CC3CC=CCC3)CC2)c2cccc(Cl)c2)CCCCC1` (stereo not drawn) [Example 119, 1-{1-(3-chlorophenyl)-2-[4-(cyclohex-3-en-1-ylmethyl)piperazin-1-yl]ethyl}cyclohexanol dihydrochloride] gave an inhibition at 1 µM of 97% and a pEC50 of 6.96.
In the case of `OC1CCCC(CN2CCN(CC(c3cccc(Cl)c3)C3(O)CCCCC3)CC2)O1` (stereo not drawn) [Example 120, 6-({4-[2-(3-chlorophenyl)-2-(1-hydroxycyclohexyl)ethyl]piperazin-1-yl}methyl)tetrahydro-2H-pyran-2-ol dihydrochloride], at 1 µM the inhibition was 97% and the pEC50 was 6.89.
`CC(CCN1CCN(CC(c2cccc(Cl)c2)C2(O)CCCCC2)CC1)c1ccccc1` (stereo not drawn) [Example 121, 1-{1-(3-chlorophenyl)-2-[4-(3-phenylbutyl)piperazin-1-yl]ethyl}cyclohexanol dihydrochloride] showed an inhibition at 1 µM of 97% and a pEC50 of 7.66.
Molecule `OC1(C(CN2CCN(CCc3ccccc3)CC2)c2cccc(Cl)c2)CCCCC1` (stereo not drawn) [Example 122, 1-{1-(3-chlorophenyl)-2-[4-(2-phenylethyl)piperazin-1-yl]ethyl}cyclohexanol dihydrochloride] had an inhibition at 1 µM of 96% and a pEC50 of 7.12.
`OC1(C(CN2CCN(Cc3cccc(Oc4ccccc4)c3)CC2)c2cccc(Cl)c2)CCCCC1` (stereo not drawn) [Example 123, 1-{1-(3-chlorophenyl)-2-[4-(3-phenoxybenzyl)piperazin-1-yl]ethyl}cyclohexanol dihydrochloride]: the inhibition at 1 µM was 96% and the pEC50 is 6.54.
The molecule `OC1(C(CN2CCN(Cc3ccc4ccccc4c3)CC2)c2cccc(Cl)c2)CCCCC1` (stereo not drawn) [Example 124, 1-{1-(3-chlorophenyl)-2-[4-(2-naphthylmethyl)piperazin-1-yl]ethyl}cyclohexanol dihydrochloride] had an inhibition at 1 µM of 94% and a negative-log EC50 (pEC50) of 6.72.
Taken in the same sequence, the figures for `OC1(C(CN2CCN(Cc3ccoc3)CC2)c2cccc(Cl)c2)CCCCC1` (stereo not drawn) [Example 125, 1-{1-(3-chlorophenyl)-2-[4-(3-furylmethyl)piperazin-1-yl]ethyl}cyclohexanol dihydrochloride] were 93% and 6.92.
In turn, `OC1(C(CN2CCN(CC3CCCCC3)CC2)c2cccc(Cl)c2)CCCCC1` (stereo not drawn) [Example 126, 1-{1-(3-chlorophenyl)-2-[4-(cyclohexylmethyl)piperazin-1-yl]ethyl}cyclohexanol dihydrochloride] gave an inhibition at 1 µM of 93% and a pEC50 of 6.89.
Molecule `OC1(C(CN2CCN(Cc3ccnc4ccccc34)CC2)c2cccc(Cl)c2)CCCCC1` (stereo not drawn) [Example 127, 1-{1-(3-chlorophenyl)-2-[4-(quinolin-4-ylmethyl)piperazin-1-yl]ethyl}cyclohexanol dihydrochloride] showed an inhibition at 1 µM of 86% and a pEC50 of 7.04.
For `CCc1ccc(CN2CCN(CC(c3cccc(Cl)c3)C3(O)CCCCC3)CC2)o1` (stereo not drawn) [Example 128, 1-(1-(3-chlorophenyl)-2-{4-[(5-ethyl-2-furyl)methyl]piperazin-1-yl}ethyl)cyclohexanol dihydrochloride], at 1 µM the inhibition was 83% and the pEC50 was 6.31.
`CC(CN1CCN(CC(c2cccc(Cl)c2)C2(O)CCCCC2)CC1)c1ccccc1` (stereo not drawn) [Example 129, 1-{1-(3-chlorophenyl)-2-[4-(2-phenylpropyl)piperazin-1-yl]ethyl}cyclohexanol dihydrochloride] showed an inhibition at 1 µM of 81% and a pEC50 of 6.37.
As for `OC1(C(CN2CCN(Cc3cc4ccccc4o3)CC2)c2cccc(Cl)c2)CCCCC1` (stereo not drawn) [Example 130, 1-[2-[4-(1-benzofuran-2-ylmethyl)piperazin-1-yl]-1-(3-chlorophenyl)ethyl]cyclohexanol dihydrochloride], the inhibition at 1 µM stood at 79% and the pEC50 was 6.05.
Consider `OC1(C(CN2CCN(Cc3ccc(OCc4ccccc4)cc3)CC2)c2cccc(Cl)c2)CCCCC1` (stereo not drawn) [Example 131, 1-[2-{4-[4-(benzyloxy)benzyl]piperazin-1-yl}-1-(3-chlorophenyl)ethyl]cyclohexanol dihydrochloride], for which the inhibition at 1 µM amounted to 78% and the pEC50 was 6.77.
Molecule `OC1(C(CN2CCN(Cc3ccc(Oc4ccccc4)cc3)CC2)c2cccc(Cl)c2)CCCCC1` (stereo not drawn) [Example 132, 1-{1-(3-chlorophenyl)-2-[4-(4-phenoxybenzyl)piperazin-1-yl]ethyl}cyclohexanol dihydrochloride] had an inhibition at 1 µM of 77% and a pEC50 of 7.15.
`OC1(C(CN2CCN(Cc3ccncc3)CC2)c2cccc(Cl)c2)CCCCC1` (stereo not drawn) [Example 133, 1-{1-(3-chlorophenyl)-2-[4-(pyridin-4-ylmethyl)piperazin-1-yl]ethyl}cyclohexanol dihydrochloride] showed an inhibition at 1 µM of 77% and a pEC50 of 6.34.
Turning to `OC1(C(CN2CCN(Cc3cccnc3)CC2)c2cccc(Cl)c2)CCCCC1` (stereo not drawn) [Example 134, 1-{1-(3-chlorophenyl)-2-[4-(pyridin-3-ylmethyl)piperazin-1-yl]ethyl}cyclohexanol dihydrochloride], testing at 1 µM gave an inhibition of 69% and the pEC50 is 6.03.
